# Experiments:
# malignant brain tumor = test: Clinical study of CRF in patients with malignant brain tumor (tumor size by MRI, survival); type: in vivo, human
# Experimental: Patients with malignant brain tumor were treated with 2 mg/day (1 mg dose, twice daily) of either human CRF subcutaneously. […] Additionally, of the 30 patients who had received treatment for at least 6 months, 10 experienced a decrease in tumor size.
# [1] = system: human glioblastoma cell line U87 Flue; test: Brain tumor-bearing SCID mice (U87 Flue glioblastoma), 80-day survival and tumor progression study
# Description: The U87 Flue cell line was created by stably transducing U87 cells with a lentiviral construct containing the luc gene.
# peritumoral edema = details: patients with peritumoral edema; cited from earlier work
# [2] = high dose of CRF, 80-day study period
compound,measurement,setting,value
"CRF: endogenous 41 amino acid peptide, the major hypothalamic hormone responsible for stimulation of the pituitary-adrenal axis",patients exhibiting a reduction in tumor size of around 90%,"malignant brain tumor; FIG. 2 patients, 2 mg/day s.c.",two
same,survival of some patients after CRF treatment,malignant brain tumor; FIGS. 1 and 2,1-2 years
same,survival of the overwhelming majority of patients,"malignant brain tumor; FIGS. 1 and 2, projected survival 3-6 months",live well beyond the projected 3-6 months
same,metastatic patients exhibiting survival beyond the projected 3-6 months,malignant brain tumor; of the 3 metastatic patients in FIG. 3,3 patients
same,metastatic patients showing a reduction in tumor size at the last timepoint measured,"malignant brain tumor; of the 3 metastatic patients in FIG. 3, 2 mg/day s.c.",2 patients
same,patients exhibiting a reduction in tumor size at the last time point measured,"malignant brain tumor; of the 10 patients in FIG. 2, 2 mg/day s.c.",8 patients
same,patients exhibiting a maintenance in tumor size,"malignant brain tumor; of the 20 patients in FIG. 1, 2 mg/day s.c.",5 patients
same,patients exhibiting a reduction in tumor size,"malignant brain tumor; of the 20 patients in FIG. 1, 2 mg/day s.c. (1 mg twice daily)",6 patients
same,patients exhibiting a reduction in tumor size by over 50%,"malignant brain tumor; of the 20 patients in FIG. 1, after 9 months of treatment, 2 mg/day s.c.",3 patients
same,patients experiencing a decrease in tumor size,malignant brain tumor; of the 30 patients treated for at least 6 months,10 patients
same,survival over the 80-day study period,"[1]; high dose of CRF, 100 μg/kg s.c. twice daily, all mice",survived the entire 80-day study period
same,brain tumor progression (luminescence imaging),[1]; [2],did not progress during the 80-day study period
same,health appearance of the mice during the study,[1]; [2],appeared healthy throughout
same,brain tumor progression (luminescence imaging),[1]; low dose of CRF,did not progress or progressed more slowly
same,mean survival time,[1]; low dose of CRF,"between mice, that were administered a high dose of CRF, and mice that had received no treatment or were administered dexamethasone"
same,mice still alive at the end of the 80-day study period,[1]; low dose of CRF,60%
"Cn1nnc2c(C(N)=O)ncn2c1=O [TMZ, reference compound]",mice still alive at the end of the 80-day study period,[1]; TMZ-treated mice,40%
"O=NN(CCCl)C(=O)NCCCl [BiCNU, reference compound]",brain tumor growth / response to treatment (photon emission),"[1]; chemotherapeutic agents, TMZ: all mice but one",continued to grow
corticorelin acetate,exposure to dexamethasone,peritumoral edema,reduced exposure to dexamethasone
same,steroid-related side effects,peritumoral edema,improvement in steroid-related side effects
